# Reference: patent US20240156852A1, “CARBON NANOPARTICLE COMPOSITIONS AND METHODS FOR DELIVERING THERAPEUTICS TO SPECIFIC TARGET SITES” (SINON NANO SCIENCES INC., priority 2021, published 2024)
# Settings: male, Wistar, rat, in vivo, po
# Protocol: Wistar rats (male, 200-220 g) were obtained from the CPCSEA registered animal vendor. Animals were maintained at temperature of 23±2° C., relative humidity of 30% to 70%, and a 12 h dark-light cycle. All of the animals had free access to water and rodent chow at all times, and all of the experimental animals were fed under the above conditions throughout the acclimatization period. Wistar rats (n=1, Male) were randomly taken for each of the two groups. […] All the rats were fasted for 12 hr before administration. The blood collection was done from retro-orbital plexus using an anticoagulant-coated capillary tube at 0 (pre-dose), 0.25, 0.5, 1, 2, 4, 6, 8, and 24 hr respectively following oral administration from both the rats (Group 1 and 2). At each time point, blood sample (125 μL) was collected in EDTA tubes and tubes were immediately centrifuged at 3000 rpm for 10 min to obtain the plasma. The separated plasma was frozen at −20° C. before analysis.
# The biological samples were thawed at room temperature. After vortexing for 30 seconds, 100 μL of sample was taken into 1.5 mL eppendorf tubes, 600 μL of ice-cold acetonitrile was added to denature the proteins. The tubes were vortexed for 2 minutes followed by centrifugation at 5000 rpm for 10 minutes. […]
compound,measurement,value
CC(=O)O[C@H]1C(=O)[C@@]2(C)[C@H]([C@H](OC(=O)c3ccccc3)[C@]3(O)C[C@H](OC(=O)[C@H](O)[C@@H](NC(=O)c4ccccc4)c4ccccc4)C(C)=C1C3(C)C)[C@]1(OC(C)=O)CO[C@@H]1C[C@@H]2O [Paclitaxel],plasma concentrations (below quantitation limits),< 31.2 ng/mL
